In ChEMBL document CHEMBL1129894, “Dihydroxypyrrolidines C-linked to galactose. Total synthesis of a specific inhibitor of -mannosidases” (Bioorg Med Chem Lett, 1997):
Activity calls are given as the source filed them. The rule behind the calls is not given here.

Key:
Prunus dulcis = experiment: Inhibition of the enzyme beta-glucosidase from almonds was determined at 1 mM concentration of the compound; No inhibition
[1] = system: Caldicellulosiruptor saccharolyticus; experiment: Inhibition of the enzyme beta-glucosidase from Caldocellum saccharolyticum was determined at 1 mM concentration of the compound; No inhibition
[2] = Inhibition of the enzyme alpha-mannosidase from almonds was determined at 1 mM concentration of the compound; No inhibition
[3] = target: Glucoamylase (Aspergillus niger) (UniProt P69328); experiment: Inhibition of the enzyme amyloglucosidase from Aspergillus niger was determined at 1 mM concentration of the compound; No inhibition
[4] = target: T1, Tissue alpha-L-fucosidase (Homo sapiens) (UniProt P04066); experiment: Inhibition of the enzyme alpha-L-fucosidase from bovine epididymis was determined at 1 mM concentration of the compound; No inhibition; conditions: Bos taurus, target entry is the homologue from another species
T1 sequence (whole entry): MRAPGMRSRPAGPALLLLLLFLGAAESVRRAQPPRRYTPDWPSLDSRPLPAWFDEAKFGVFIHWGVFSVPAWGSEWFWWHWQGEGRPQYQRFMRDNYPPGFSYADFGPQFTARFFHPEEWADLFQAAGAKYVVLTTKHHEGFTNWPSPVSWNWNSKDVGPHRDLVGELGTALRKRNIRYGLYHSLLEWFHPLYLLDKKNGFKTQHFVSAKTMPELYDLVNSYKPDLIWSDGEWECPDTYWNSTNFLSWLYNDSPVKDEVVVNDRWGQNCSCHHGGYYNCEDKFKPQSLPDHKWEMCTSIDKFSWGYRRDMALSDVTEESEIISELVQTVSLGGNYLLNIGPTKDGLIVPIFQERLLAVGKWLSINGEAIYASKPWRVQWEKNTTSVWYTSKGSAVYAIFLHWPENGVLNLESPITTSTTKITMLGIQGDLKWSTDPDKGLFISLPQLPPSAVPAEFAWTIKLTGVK

[5] = target: T2, Alpha-N-acetylgalactosaminidase (Homo sapiens) (UniProt P17050); experiment: Inhibition of the enzyme alpha-N-acetylgalactosaminidase from chicken liver was determined at 1 mM concentration of the compound; No inhibition; conditions: Gallus gallus, target entry is the homologue from another species
T2 sequence (whole entry): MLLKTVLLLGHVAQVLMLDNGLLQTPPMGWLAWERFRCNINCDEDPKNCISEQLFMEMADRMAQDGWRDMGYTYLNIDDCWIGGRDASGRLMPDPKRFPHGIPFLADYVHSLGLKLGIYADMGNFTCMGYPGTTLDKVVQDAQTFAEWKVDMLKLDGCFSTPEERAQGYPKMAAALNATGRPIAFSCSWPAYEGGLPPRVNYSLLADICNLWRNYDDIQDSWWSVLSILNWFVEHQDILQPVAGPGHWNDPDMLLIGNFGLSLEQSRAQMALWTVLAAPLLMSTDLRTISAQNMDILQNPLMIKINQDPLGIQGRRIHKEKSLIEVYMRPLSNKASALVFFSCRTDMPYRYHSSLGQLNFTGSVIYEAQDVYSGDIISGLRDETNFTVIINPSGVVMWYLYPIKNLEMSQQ

[6] = target: Beta-galactosidase (Escherichia coli) (UniProt Q8VNN2); experiment: Inhibition of the enzyme beta-galactosidase from Escherichia coli was determined at 1 mM concentration of the compound; No inhibition
[7] = target: T3, Beta-galactosidase (Aspergillus niger) (UniProt P29853); experiment: Inhibition of the enzyme beta-galactosidase from Aspergillus niger was determined at 1 mM concentration of the compound; No inhibition
T3 sequence (whole entry): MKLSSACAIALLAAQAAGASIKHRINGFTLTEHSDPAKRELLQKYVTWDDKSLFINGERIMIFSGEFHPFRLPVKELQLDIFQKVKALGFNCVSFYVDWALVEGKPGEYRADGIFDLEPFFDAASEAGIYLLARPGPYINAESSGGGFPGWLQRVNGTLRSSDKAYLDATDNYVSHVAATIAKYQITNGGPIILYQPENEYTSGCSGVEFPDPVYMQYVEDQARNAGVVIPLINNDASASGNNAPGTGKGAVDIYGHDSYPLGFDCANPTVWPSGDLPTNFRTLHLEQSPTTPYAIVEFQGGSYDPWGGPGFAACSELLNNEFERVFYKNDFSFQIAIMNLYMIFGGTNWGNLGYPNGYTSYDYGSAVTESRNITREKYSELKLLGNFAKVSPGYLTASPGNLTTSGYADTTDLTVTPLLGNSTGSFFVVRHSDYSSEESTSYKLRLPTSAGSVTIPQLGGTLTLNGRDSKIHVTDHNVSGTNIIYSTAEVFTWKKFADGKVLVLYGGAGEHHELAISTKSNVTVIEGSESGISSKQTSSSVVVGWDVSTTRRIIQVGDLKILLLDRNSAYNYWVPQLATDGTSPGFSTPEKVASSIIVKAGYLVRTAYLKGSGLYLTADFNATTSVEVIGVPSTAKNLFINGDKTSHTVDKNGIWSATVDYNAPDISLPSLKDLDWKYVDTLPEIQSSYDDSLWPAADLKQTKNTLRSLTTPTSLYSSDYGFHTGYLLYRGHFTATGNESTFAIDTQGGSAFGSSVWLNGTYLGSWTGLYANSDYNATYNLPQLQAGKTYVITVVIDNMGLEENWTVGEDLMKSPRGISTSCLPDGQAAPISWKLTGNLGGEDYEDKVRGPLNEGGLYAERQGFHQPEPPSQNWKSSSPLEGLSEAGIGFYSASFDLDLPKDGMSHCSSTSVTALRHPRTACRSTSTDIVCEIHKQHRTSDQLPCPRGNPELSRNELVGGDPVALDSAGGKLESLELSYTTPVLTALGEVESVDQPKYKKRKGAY

Aspergillus niger = experiment: Inhibition of the enzyme beta-D-xylosidase from Aspergillus niger was determined at 1 mM concentration of the compound; No inhibition
Bos taurus [8] = species: Bos taurus; experiment: Inhibition of the enzyme beta-N-acetylglucosaminidase from bovine epididymis A was determined at 1 mM concentration of the compound; No inhibition
Bos taurus [9] = species: Bos taurus; experiment: Inhibition of the enzyme beta-N-acetylglucosaminidase from bovine epididymis B was determined at 1 mM concentration of the compound; No inhibition
jack = experiment: Inhibition of the enzyme beta-N-acetylglucosaminidase from jack beans was determined at 1 mM concentration of the compound; No inhibition
[10] = target: T4, Beta-galactosidase (Bos taurus) (UniProt Q58D55); experiment: Inhibition of the enzyme beta-galactosidase from bovine liver was determined at 1 mM concentration of the compound; No inhibition
T4 sequence (whole entry): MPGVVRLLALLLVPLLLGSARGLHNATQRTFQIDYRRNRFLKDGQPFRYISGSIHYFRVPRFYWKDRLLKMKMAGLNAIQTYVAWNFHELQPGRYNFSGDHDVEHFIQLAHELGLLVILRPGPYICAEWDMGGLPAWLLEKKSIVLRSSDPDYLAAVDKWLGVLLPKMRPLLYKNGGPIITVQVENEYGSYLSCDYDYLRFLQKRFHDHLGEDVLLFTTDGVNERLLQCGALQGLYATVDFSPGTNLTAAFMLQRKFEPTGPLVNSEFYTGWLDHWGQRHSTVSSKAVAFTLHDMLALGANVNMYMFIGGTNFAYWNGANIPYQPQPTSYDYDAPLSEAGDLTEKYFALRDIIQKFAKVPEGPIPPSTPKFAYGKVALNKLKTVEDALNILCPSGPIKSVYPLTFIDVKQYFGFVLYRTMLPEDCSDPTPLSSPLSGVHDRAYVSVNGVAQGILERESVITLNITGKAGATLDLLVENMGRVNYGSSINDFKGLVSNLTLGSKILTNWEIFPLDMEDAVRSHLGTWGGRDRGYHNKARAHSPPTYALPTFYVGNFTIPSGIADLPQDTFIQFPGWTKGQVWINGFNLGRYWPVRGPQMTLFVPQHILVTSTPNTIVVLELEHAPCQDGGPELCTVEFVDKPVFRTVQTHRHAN

[11] = target: T1, Tissue alpha-L-fucosidase (Homo sapiens); experiment: Inhibition of the enzyme alpha-L-fucosidase from human placenta was determined at 1 mM concentration of the compound; No inhibition
[12] = Inhibition of the enzyme beta-galactosidase from jack beans was determined at 1 mM concentration of the compound; No inhibition
[13] = Inhibition of the enzyme Beta-mannosidase from Helix pomatia was determined at 1 mM concentration of the compound; No inhibition
[14] = Inhibition of the enzyme amyloglucosidase from Rhizopus mold was determined at 1 mM concentration of the compound; No inhibition
[15] = Inhibition of the enzyme Alpha-galactosidase from coffee beans was determined at 1 mM concentration of the compound; No inhibition; conditions: Coffea arabica
Oryza sativa = experiment: Inhibition of the enzyme alpha-glucosidase (maltase) from rice was determined at 1 mM concentration of the compound; No inhibition
Saccharomyces cerevisiae [16] = experiment: Inhibition of the enzyme alpha-glucosidase (maltase) from yeast was determined at 1 mM concentration of the compound; No inhibition
[17] = Inhibition of the enzyme Alpha-galactosidase from Escherichia coli was determined at 1 mM concentration of the compound; No inhibition
[18] = Inhibition of the enzyme Alpha-galactosidase from Aspergillus niger was determined at 1 mM concentration of the compound; No inhibition
[19] = Inhibition of the enzyme beta-galactosidase from Aspergillus oryzae was determined at 1 mM concentration of the compound; No inhibition
Saccharomyces cerevisiae [20] = experiment: Inhibition of the enzyme alpha-glucosidase (isomaltase) from baker yeast was determined at 1 mM concentration of the compound; No inhibition
[21] = Inhibition of the enzyme alpha-mannosidase from almonds was determined at 1 mM concentration of the compound; Moderate inhibition

Sequence of Glucoamylase (Aspergillus niger) (P69328 whole entry): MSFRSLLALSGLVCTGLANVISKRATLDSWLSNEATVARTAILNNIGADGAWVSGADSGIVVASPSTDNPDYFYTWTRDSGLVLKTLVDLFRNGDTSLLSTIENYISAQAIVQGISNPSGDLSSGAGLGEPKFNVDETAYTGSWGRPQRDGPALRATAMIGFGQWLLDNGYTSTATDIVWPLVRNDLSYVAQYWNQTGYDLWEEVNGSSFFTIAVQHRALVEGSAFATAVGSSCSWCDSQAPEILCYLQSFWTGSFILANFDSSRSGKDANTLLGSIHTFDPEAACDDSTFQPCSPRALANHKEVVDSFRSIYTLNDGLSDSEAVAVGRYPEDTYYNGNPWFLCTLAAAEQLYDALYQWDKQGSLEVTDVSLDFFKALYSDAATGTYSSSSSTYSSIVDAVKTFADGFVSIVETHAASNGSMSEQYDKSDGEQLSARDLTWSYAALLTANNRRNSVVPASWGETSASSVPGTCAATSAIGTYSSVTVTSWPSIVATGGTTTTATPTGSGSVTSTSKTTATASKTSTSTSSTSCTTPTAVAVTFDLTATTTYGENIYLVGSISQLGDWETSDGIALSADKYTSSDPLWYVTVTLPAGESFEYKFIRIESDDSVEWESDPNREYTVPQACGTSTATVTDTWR
Sequence of Beta-galactosidase (Escherichia coli) (Q8VNN2 whole entry, looked up): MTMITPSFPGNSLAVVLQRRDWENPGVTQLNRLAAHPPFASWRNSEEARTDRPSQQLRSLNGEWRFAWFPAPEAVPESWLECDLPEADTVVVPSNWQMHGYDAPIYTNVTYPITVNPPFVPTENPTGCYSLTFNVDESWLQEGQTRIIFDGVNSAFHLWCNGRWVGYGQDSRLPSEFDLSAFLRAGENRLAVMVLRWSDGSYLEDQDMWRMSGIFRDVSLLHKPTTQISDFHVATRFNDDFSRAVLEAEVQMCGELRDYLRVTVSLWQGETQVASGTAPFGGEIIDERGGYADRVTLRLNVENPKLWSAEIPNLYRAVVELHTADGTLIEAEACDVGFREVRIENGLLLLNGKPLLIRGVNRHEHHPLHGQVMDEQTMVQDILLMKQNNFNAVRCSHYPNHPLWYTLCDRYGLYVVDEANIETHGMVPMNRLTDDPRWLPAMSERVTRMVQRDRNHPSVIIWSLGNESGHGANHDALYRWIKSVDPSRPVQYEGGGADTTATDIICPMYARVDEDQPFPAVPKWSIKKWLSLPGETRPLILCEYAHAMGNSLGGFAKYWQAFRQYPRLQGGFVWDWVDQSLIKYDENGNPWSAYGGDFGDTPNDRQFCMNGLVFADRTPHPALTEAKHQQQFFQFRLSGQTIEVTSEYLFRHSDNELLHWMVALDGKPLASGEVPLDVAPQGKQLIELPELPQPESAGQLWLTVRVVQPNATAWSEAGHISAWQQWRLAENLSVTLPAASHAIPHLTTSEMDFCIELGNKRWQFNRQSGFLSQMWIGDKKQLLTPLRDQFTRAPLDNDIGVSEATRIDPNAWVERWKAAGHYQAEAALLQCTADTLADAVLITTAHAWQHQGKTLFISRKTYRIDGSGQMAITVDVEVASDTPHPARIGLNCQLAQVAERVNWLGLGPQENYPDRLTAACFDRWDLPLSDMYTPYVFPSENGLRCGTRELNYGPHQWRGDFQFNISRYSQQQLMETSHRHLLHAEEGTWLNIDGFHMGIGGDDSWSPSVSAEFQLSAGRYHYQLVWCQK

Row | SMILES | inhibition (Prunus dulcis) | inhibition [1] | inhibition [3] | inhibition [4] | inhibition [5] | inhibition [6] | inhibition [7] | inhibition (Aspergillus niger) | inhibition (Bos taurus [8]) | inhibition (Bos taurus [9]) | inhibition (jack) | inhibition [10] | inhibition [11] | inhibition [12] | inhibition [13] | inhibition [14] | inhibition [15] | inhibition (Oryza sativa) | inhibition (Saccharomyces cerevisiae [16]) | inhibition [17] | also measured
1 | OCC1O[C@H](O)C(O)[C@@H]([C@H](O)C2NCC(O)C2O)C1O (stereo partly drawn) | inactive | inactive | inactive | inactive | inactive | inactive | inactive | inactive | inactive | inactive | inactive | inactive | inactive | inactive | inactive | inactive | inactive | inactive | inactive | inactive | inhibition [2]: inactive; inhibition [18]: inactive; inhibition [19]: inactive; inhibition (Saccharomyces cerevisiae [20]): inactive
2 | OCC1O[C@H](O)[C@H](O)[C@@H]([C@H](O)C2NCC(O)C2O)C1O (stereo partly drawn) | inactive | inactive | inactive | inactive | inactive | inactive | inactive | inactive | inactive | inactive | inactive | inactive | inactive | inactive | inactive | inactive | inactive | inactive | inactive | inactive | inhibition [21]: 27%; inhibition [18]: inactive; inhibition [19]: inactive; inhibition (Saccharomyces cerevisiae [20]): inactive
